This note sets out measurements from publication PMC3531425, “Low Resolution Solution Structure of HAMLET and the Importance of Its Alpha-Domains in Tumoricidal Activity” (PLoS ONE, 2012).

Common to all, as to format: cell-based, human
The subject of experiment [1] is A549 cells. Kind of experiment: K^+ flux, FluxOR potassium ion channel assay (Tl^+ influx), fluorometry. The following applies: for K^+ flux, + oleate: peptide mixed with sodium oleate; for K^+ flux, + oleate / K^+ flux, - oleate: FluxOR fluorescence; for K^+ flux, - oleate: peptide without sodium oleate. On the procedure: (§1) To quantify the ion fluxes, fluorometry was measured in a plate reader (TECAN infinite F200, Tecan Group, Switzerland). For calcium fluxes measurement, the Fluo-4 NW calcium assay kit (Invitrogen) was used. For K^+ fluxes, the FluxOR™ potassium ion channel assay (Invitrogen) was used according to the manufacturer's instructions but component E was excluded. Briefly, cells were incubated with FluxOR™, which is a Tl^+ indicator. An increase in fluorescence signal corresponds to an influx of Tl^+, indicating opening of potassium channels, which was measured at 535 nm after excitation at 485 nm in the TECAN infinite plate reader. Given the driving force for K^+ flux across the plasma membrane this corresponds to K^+ efflux. Calcium and potassium fluxes was measured in 20 000 A549 cells plated in a 96-well plate. Sodium was measured in 100 000 Jurkat cells using the CoroNa Green Sodium Indicator (Invitrogen).

Experiment [2] deals with A549 cells. Kind of experiment: Ca^2+ flux, Fluo-4 NW calcium assay, fluorometry. The following applies: for Ca^2+ flux, + oleate: peptide mixed with sodium oleate; for Ca^2+ flux, + oleate / Ca^2+ flux, - oleate: Fluo-4 fluorescence; for Ca^2+ flux, - oleate: peptide without sodium oleate. Here is the method:
as §1

The subject of the next experiment is Jurkat cells. Kind of experiment: Na^+ flux, CoroNa Green Sodium Indicator, fluorometry. Conditions: for Na^+ flux, + oleate: peptide mixed with sodium oleate; for Na^+ flux, + oleate / Na^+ flux, - oleate: CoroNa Green fluorescence; for Na^+ flux, - oleate: peptide without sodium oleate. Here is the method: as §1
Experiment [3] has as its system lung carcinoma or leukemia cells. Briefly: Tumor cell death (ATP level, PrestoBlue), cell line not given. The following applies: sodium oleate alone; 3 hours. Here is the method:
A549 human lung carcinoma cell line and the Jurkat human acute T-cell leukemia cell line (obtained from ATCC, Manassas, VA, USA) were cultured in RPMI-1640 with non-essential amino acids (1∶100), 1 mM sodium pyruvate (all from PAA, Pasching, Austria), […] Gentamicin (Gibco, Paisley, UK) and 5% fetal calf serum (FCS) at 37°C, 5% CO2. Cells (5*10^5 cells/ml for A549 cells, 1*10^6 cells/ml for Jurkat cells) in suspension were incubated with either […] or peptide-oleate mixtures in serum-free RPMI-1640 at 37°C, 5% CO2. 5% FCS was added after 1 hour. Cell death was quantified by ATP level measurement (ATPlite Kit, PerkinElmer, Waltham, MA, Infinite F200, Tecan Group Ltd., Männedorf, Switzerland) and by using PrestoBlueTM Cell Viability Reagent (Invitrogen, Carlsbad, CA).

For experiment [4], the system named is A549 lung carcinoma cells. Briefly: Cell morphology by phase holographic imaging and transmission DIC. Conditions: A549; 1 h. On the procedure: For cellular uptake assays, A549 lung carcinoma cells were grown overnight on 8-well chamber slides (Nalge Nunc, Rochester, NY). Cells were incubated 1 hour with 35 μM biotinylated peptide with or without 175 μM sodium oleate (Sigma) in serum free RPMI media, followed by fixation (4% paraformaldehyde) and permeabilization (0.25% Triton X-100, 5% FCS in phosphate-buffered saline). Peptides were visualized by incubation with streptavidin-Alexa568 (Molecular Probes) and Wheat Germ Agglutinin (WGA) (Molecular Probes) was used to visualize plasma and nuclear membranes. Images were captured on a LSM510 META confocal microscope (Carl Zeiss, Jena, Germany) with pinhole settings corresponding to one airy unit. Quantification of fluorescence intensities was performed with the ImageJ software. The HoloMonitorTM M3 digital holographic microscope (Phase Holographic Imaging AB, Lund, Sweden) records 3D information of cells using interfering wave fronts induced by the exposure to a 0.8 mW HeNe laser (633 nm), resembling a Mach-Zender interferometer where the cells, placed in one of the interfering wave fronts, induce a phase difference between the two beams [26]-[28]. The interference pattern (hologram) is recorded on a digital sensor and is used to reconstruct the amplitude and phase of the object as described, [30]. […]

For `CCCCCCCC/C=C\CCCCCCCC(=O)O` [Sodium oleate, sodium oleate, reference compound], in the experiment with A549 cells [1] (HAMLET or sodium oleate alone, FluxOR, mean of at least two experiments), the “K^+ flux, substance alone” value is “significant K^+ fluxes”. Also, in the experiment on A549 cells [2] (HAMLET or sodium oleate alone, Fluo-4, mean of at least two experiments), the “Ca^2+ flux, substance alone” value was “not observed”. The “Na^+ flux, substance alone” value in the experiment on Jurkat cells (HAMLET or sodium oleate alone, CoroNa Green, mean of at least two experiments) is recorded as “not observed”. In experiment [3], the “Tumor cell killing in the absence of peptide” value is reported as “did not kill the tumor cells”. The “Cell morphology by transmission light DIC, oleate-free peptide or oleate alone” value in experiment [4] was “remain as flat and extended”.

As for “AAKKILDIKGIDYWL [Peptide 10, 15-amino-acid peptide of α-lactalbumin library]”, in the experiment on A549 cells [1], the “K^+ flux, + oleate” value was “No” and the “K^+ flux, - oleate” value is on record as “No”. Further, in the experiment on A549 cells [2], the “Ca^2+ flux, + oleate” value is recorded as “weaker Ca^2+ flux” and the “Ca^2+ flux, - oleate” value is listed as “weaker Ca^2+ flux”. Besides, in the experiment with Jurkat cells, the “Na^+ flux, + oleate” value was “Weak Na^+ fluxes”.

Turning to “AKSSQVPQSRNIADI [Peptide 7, 15-amino-acid peptide of α-lactalbumin library]”, in the experiment on A549 cells [1], the “K^+ flux, + oleate” value is reported as “No” and the “K^+ flux, - oleate” value is “No”. Also, in the experiment with A549 cells [2], the “Ca^2+ flux, + oleate” value is recorded as “No” and the “Ca^2+ flux, - oleate” value is on record as “No”. Also, in the experiment on Jurkat cells, the “Na^+ flux, + oleate” value is “No” and the “Na^+ flux, - oleate” value was “No”.

As to “ATEKLEQWLAEKL [Peptide 12, C-terminal peptide of α-lactalbumin library]”, in the experiment with A549 cells [1], the “K^+ flux, + oleate” value is given as “No” and the “K^+ flux, - oleate” value is reported as “No”. Moreover, in the experiment on A549 cells [2], the “Ca^2+ flux, + oleate” value is on record as “No” and the “Ca^2+ flux, - oleate” value is listed as “No”. Moreover, in the experiment on Jurkat cells, the “Na^+ flux, + oleate” value is given as “No” and the “Na^+ flux, - oleate” value was “No”.

With “FHTSGYDTQAIVENN [Peptide 4, 15-amino-acid peptide of α-lactalbumin library]”, in the experiment on A549 cells [1], the “K^+ flux, + oleate” value was “No” and the “K^+ flux, - oleate” value is listed as “No”. Besides, in the experiment with A549 cells [2], the “Ca^2+ flux, + oleate” value is “No” and the “Ca^2+ flux, - oleate” value was “No”. In the experiment on Jurkat cells, the “Na^+ flux, + oleate” value is “No” and the “Na^+ flux, - oleate” value is listed as “No”.

“IALPELIATMFHTSG [Peptide 3, 15-amino-acid peptide of α-lactalbumin library]”: in the experiment on A549 cells [1], the “K^+ flux, + oleate” value is “No” and the “K^+ flux, - oleate” value is listed as “No”. In addition, in the experiment with A549 cells [2], the “Ca^2+ flux, + oleate” value is “No” and the “Ca^2+ flux, - oleate” value was “No”. Moreover, in the experiment with Jurkat cells, the “Na^+ flux, + oleate” value is given as “No” and the “Na^+ flux, - oleate” value is on record as “No”.

Consider “IDYWLAHKALATEKL [Peptide 11, 15-amino-acid peptide of α-lactalbumin library]”, for which, in the experiment on A549 cells [1], the “K^+ flux, + oleate” value was “triggered K^+ fluxes and Yes”; the “K^+ flux, - oleate” value is “triggered K^+ fluxes and Yes”. Further, in the experiment with A549 cells [2], the “Ca^2+ flux, + oleate” value is “increased Ca^2+ fluxes and Yes”; the “Ca^2+ flux, - oleate” value is “increased Ca^2+ fluxes and Yes”. In the experiment with Jurkat cells, the “Na^+ flux, + oleate” value is “No” and the “Na^+ flux, - oleate” value was “No”.

Take “IVENNESTEYGLFQI [Peptide 5, 15-amino-acid peptide of α-lactalbumin library]”: in the experiment with A549 cells [1], the “K^+ flux, + oleate” value is recorded as “No” and the “K^+ flux, - oleate” value is recorded as “No”. Besides, in the experiment with A549 cells [2], the “Ca^2+ flux, + oleate” value is “No” and the “Ca^2+ flux, - oleate” value was “No”. For the same molecule, in the experiment on Jurkat cells, the “Na^+ flux, + oleate” value is reported as “No” and the “Na^+ flux, - oleate” value is “No”.

With “KQFTKAELSQLLKDI [Peptide 1, 15-amino-acid peptide of α-lactalbumin library, numbered from the N-terminal]”, in the experiment on A549 cells [1], the “K^+ flux, + oleate” value is “triggered K^+ fluxes and Yes”; the “K^+ flux, - oleate” value is “triggered K^+ fluxes and Yes”. Moreover, in the experiment with A549 cells [2], the “Ca^2+ flux, + oleate” value is recorded as “No” and the “Ca^2+ flux, - oleate” value is listed as “No”. In the experiment with Jurkat cells, the “Na^+ flux, + oleate” value is “No” and the “Na^+ flux, - oleate” value is recorded as “No”.

For the molecule “LDDDITDDIMAAKKI [Peptide 9, 15-amino-acid peptide of α-lactalbumin library]”, in the experiment on A549 cells [1], the “K^+ flux, + oleate” value is recorded as “No” and the “K^+ flux, - oleate” value is given as “No”. In addition, in the experiment on A549 cells [2], the “Ca^2+ flux, + oleate” value is “No” and the “Ca^2+ flux, - oleate” value is given as “No”. Further, in the experiment on Jurkat cells, the “Na^+ flux, + oleate” value is on record as “No” and the “Na^+ flux, - oleate” value is reported as “No”.

As for “LLKDIDGYGGIALPE [Peptide 2, 15-amino-acid peptide of α-lactalbumin library]”, in the experiment on A549 cells [1], the “K^+ flux, + oleate” value was “No” and the “K^+ flux, - oleate” value was “No”. In addition, in the experiment with A549 cells [2], the “Ca^2+ flux, + oleate” value is listed as “No” and the “Ca^2+ flux, - oleate” value was “No”. In the experiment with Jurkat cells, the “Na^+ flux, + oleate” value is recorded as “No” and the “Na^+ flux, - oleate” value is recorded as “No”.

With “NIADISADKFLDDDI [Peptide 8, 15-amino-acid peptide of α-lactalbumin library]”, in the experiment with A549 cells [1], the “K^+ flux, + oleate” value is listed as “No” and the “K^+ flux, - oleate” value is recorded as “No”. Moreover, in the experiment with A549 cells [2], the “Ca^2+ flux, + oleate” value is “No” and the “Ca^2+ flux, - oleate” value is recorded as “No”. In addition, in the experiment with Jurkat cells, the “Na^+ flux, + oleate” value was “No” and the “Na^+ flux, - oleate” value is reported as “No”.
